Assay results from publication PMC5218480 (PLoS ONE, 2017).

System: MV-4-11 cells
Assay: Gene expression microarray analysis (Affymetrix PrimeView) and GSEA
Type: cell-based, human
Parameters: RFU PODN (11730768_x_at) / Fold change /veh PODN (11730768_x_at) / RFU LINC00158 (11744669_a_at) / Fold change /veh LINC00158 (11744669_a_at) / RFU DUSP10 (11751237_a_at) / Fold change /veh DUSP10 (11751237_a_at) / RFU ID3 (11757404_x_at) / Fold change /veh ID3 (11757404_x_at) / RFU PLEKHG5 (11737974_s_at) / Fold change /veh PLEKHG5 (11737974_s_at) / RFU LRRC4B (11730491_at) / Fold change /veh LRRC4B (11730491_at) / RFU GIMAP4 (11747438_a_at) / Fold change /veh GIMAP4 (11747438_a_at) / RFU KRT8 (11758183_x_at) / Fold change /veh KRT8 (11758183_x_at) / RFU CNN1 (11734310_a_at) / Fold change /veh CNN1 (11734310_a_at) / RFU VPS37D (11726825_at) / Fold change /veh VPS37D (11726825_at) / RFU C10orf10 (11716522_x_at) / Fold change /veh C10orf10 (11716522_x_at) / RFU KIR2DL2 /// KIR2DL4 /// KIR2DL5A /// KIR2DL5B /// KIR2DS1 /// KIR2DS2 /// KIR2DS3 /// KIR2DS4 /// KIR3DL3 /// KIR3DL3 /// KIR3DS1 (11738374_at) / Fold change /veh KIR2DL2 /// KIR2DL4 /// KIR2DL5A /// KIR2DL5B /// KIR2DS1 /// KIR2DS2 /// KIR2DS3 /// KIR2DS4 /// KIR3DL3 /// KIR3DL3 /// KIR3DS1 (11738374_at) / RFU C1QL1 (11718748_at) / Fold change /veh C1QL1 (11718748_at) / RFU TMPRSS4 (11747572_a_at) / Fold change /veh TMPRSS4 (11747572_a_at) / RFU HAMP (11756126_x_at) / Fold change /veh HAMP (11756126_x_at) / RFU RNFT2 (11725882_a_at) / Fold change /veh RNFT2 (11725882_a_at) / RFU NR4A2 (11747474_a_at) / Fold change /veh NR4A2 (11747474_a_at) / RFU ABCC12 (11746883_a_at) / Fold change /veh ABCC12 (11746883_a_at) / RFU TMEM136 (11760407_x_at) / Fold change /veh TMEM136 (11760407_x_at) / RFU CLDN22 /// WWC2 (11732394_at) / Fold change /veh CLDN22 /// WWC2 (11732394_at) / RFU HLA-DPB1 (11760878_x_at) / Fold change /veh HLA-DPB1 (11760878_x_at) / RFU SPINT1 (11716480_a_at) / Fold change /veh SPINT1 (11716480_a_at) / RFU GAP43 (11754022_s_at) / Fold change /veh GAP43 (11754022_s_at) / RFU A4GNT (11735810_at) / Fold change /veh A4GNT (11735810_at) / RFU PRB3 (11715151_x_at) / Fold change /veh PRB3 (11715151_x_at) / RFU TUBB4B (11761932_at) / Fold change /veh TUBB4B (11761932_at) / RFU CAPN14 (11732068_a_at) / Fold change /veh CAPN14 (11732068_a_at) / RFU TMCC2 (11721928_a_at) / Fold change /veh TMCC2 (11721928_a_at) / RFU IRGQ (11745062_a_at) / Fold change /veh IRGQ (11745062_a_at) / RFU FAM174B (11720279_a_at) / Fold change /veh FAM174B (11720279_a_at) / RFU TMPRSS4 (11748680_a_at) / Fold change /veh TMPRSS4 (11748680_a_at) / RFU FAM212B (11763350_a_at) / Fold change /veh FAM212B (11763350_a_at) / RFU PLEKHG5 (11743358_a_at) / Fold change /veh PLEKHG5 (11743358_a_at) / RFU ZSCAN30 (11745921_a_at) / Fold change /veh ZSCAN30 (11745921_a_at) / RFU CMKLR1 (11741424_a_at) / Fold change /veh CMKLR1 (11741424_a_at) / RFU LOC101060620 /// MAPK8IP1 (11723275_at) / Fold change /veh LOC101060620 /// MAPK8IP1 (11723275_at) / RFU SPTSSB (11747773_x_at) / Fold change /veh SPTSSB (11747773_x_at) / RFU PRSS12 (11739890_at) / Fold change /veh PRSS12 (11739890_at) / RFU BIN1 (11741810_x_at) / Fold change /veh BIN1 (11741810_x_at) / RFU WNT11 (11732464_a_at) / Fold change /veh WNT11 (11732464_a_at) / RFU C10orf10 (11716521_a_at) / Fold change /veh C10orf10 (11716521_a_at) / RFU C5orf56 (11738089_at) / Fold change /veh C5orf56 (11738089_at) / RFU CYB561 (11721691_x_at) / Fold change /veh CYB561 (11721691_x_at) / RFU ANKRD19P (11752326_a_at) / Fold change /veh ANKRD19P (11752326_a_at) / RFU OR2T12 /// OR2T33 /// OR2T8 (11738714_s_at) / Fold change /veh OR2T12 /// OR2T33 /// OR2T8 (11738714_s_at) / RFU VCAN (11748164_a_at) / Fold change /veh VCAN (11748164_a_at) / RFU JSRP1 (11732532_at) / Fold change /veh JSRP1 (11732532_at) / RFU KRTAP10-11 (11738290_x_at) / Fold change /veh KRTAP10-11 (11738290_x_at) / RFU MYO3A (11730013_a_at) / Fold change /veh MYO3A (11730013_a_at) / RFU EBF3 (11725865_a_at) / Fold change /veh EBF3 (11725865_a_at) / RFU CAMK2N1 (11719241_x_at) / Fold change /veh CAMK2N1 (11719241_x_at) / RFU C5orf56 (11738088_a_at) / Fold change /veh C5orf56 (11738088_a_at) / RFU OLFML3 (11715873_a_at) / Fold change /veh OLFML3 (11715873_a_at) / RFU LOC100653217 /// NTM (11731650_a_at) / Fold change /veh LOC100653217 /// NTM (11731650_a_at) / RFU MAPK11 (11762145_a_at) / Fold change /veh MAPK11 (11762145_a_at) / RFU FIZ1 (11724087_x_at) / Fold change /veh FIZ1 (11724087_x_at) / RFU OASL (11726364_x_at) / Fold change /veh OASL (11726364_x_at) / RFU SOX15 (11748057_x_at) / Fold change /veh SOX15 (11748057_x_at) / RFU CD79A (11719716_a_at) / Fold change /veh CD79A (11719716_a_at) / RFU HIST1H1D (11736915_at) / Fold change /veh HIST1H1D (11736915_at) / RFU CASKIN2 (11723855_a_at) / Fold change /veh CASKIN2 (11723855_a_at) / RFU LOC730098 (11760151_x_at) / Fold change /veh LOC730098 (11760151_x_at) / RFU OR4N2 (11742367_at) / Fold change /veh OR4N2 (11742367_at) / RFU PRRT2 (11749266_a_at) / Fold change /veh PRRT2 (11749266_a_at) / RFU SNX32 (11753110_a_at) / Fold change /veh SNX32 (11753110_a_at) / RFU CDHR5 (11726645_a_at) / Fold change /veh CDHR5 (11726645_a_at) / RFU RCAN1 (11760418_a_at) / Fold change /veh RCAN1 (11760418_a_at) / RFU FAM167A (11723789_a_at) / Fold change /veh FAM167A (11723789_a_at) / RFU FAM26E (11764081_at) / Fold change /veh FAM26E (11764081_at) / RFU ISYNA1 (11749810_s_at) / Fold change /veh ISYNA1 (11749810_s_at) / RFU ACY1 (11761880_at) / Fold change /veh ACY1 (11761880_at) / RFU 11764098_at / Fold change /veh 11764098_at / RFU SAMD14 (11745864_x_at) / Fold change /veh SAMD14 (11745864_x_at) / RFU NPB (11741838_a_at) / Fold change /veh NPB (11741838_a_at) / RFU TMPRSS6 (11731388_a_at) / Fold change /veh TMPRSS6 (11731388_a_at) / RFU KRTAP10-2 (11738614_at) / Fold change /veh KRTAP10-2 (11738614_at) / RFU ARHGAP8 /// PRR5-ARHGAP8 (11727945_x_at) / Fold change /veh ARHGAP8 /// PRR5-ARHGAP8 (11727945_x_at) / RFU KRTAP5-7 /// NADSYN1 (11734609_at) / Fold change /veh KRTAP5-7 /// NADSYN1 (11734609_at) / RFU RASL12 (11751679_a_at) / Fold change /veh RASL12 (11751679_a_at) / RFU CDKN2B (11736163_a_at) / Fold change /veh CDKN2B (11736163_a_at) / RFU PRF1 (11729649_at) / Fold change /veh PRF1 (11729649_at) / RFU, ZNF638 /// ZNF638-IT1 / Fold change vs veh, ZNF638 /// ZNF638-IT1 / RFU, PANK3 / Fold change vs veh, PANK3 / RFU, SH3YL1 / Fold change vs veh, SH3YL1 / RFU, ZEB2 / Fold change vs veh, ZEB2 / RFU, NRIP1 / Fold change vs veh, NRIP1 / RFU, PTTG1IP / Fold change vs veh, PTTG1IP / RFU, CAPN2 / Fold change vs veh, CAPN2 / RFU, MED14 / Fold change vs veh, MED14 / RFU, SNORA58 / Fold change vs veh, SNORA58 / RFU, C1orf63 / Fold change vs veh, C1orf63 / RFU, LRRFIP1 / Fold change vs veh, LRRFIP1 / RFU, NDUFAF7 / Fold change vs veh, NDUFAF7 / RFU, SLC12A2 / Fold change vs veh, SLC12A2 / RFU, IBTK / Fold change vs veh, IBTK / RFU, ESF1 / Fold change vs veh, ESF1 / Fold change vs veh, TMEM50B / RFU, TAOK1 / Fold change vs veh, TAOK1 / RFU, ACBD3 / Fold change vs veh, ACBD3 / RFU, TMA16 / Fold change vs veh, TMA16 / RFU, RWDD3 / Fold change vs veh, RWDD3 / RFU, BCAT1 / Fold change vs veh, BCAT1 / RFU, EDEM3 / Fold change vs veh, EDEM3 / RFU, TMEM33 / Fold change vs veh, TMEM33 / RFU, WDR75 / Fold change vs veh, WDR75 / RFU, AHCTF1 / Fold change vs veh, AHCTF1 / RFU, TFRC / Fold change vs veh, TFRC / RFU, ZDHHC17 / Fold change vs veh, ZDHHC17 / RFU, NOM1 / Fold change vs veh, NOM1 / RFU, ARL8B / Fold change vs veh, ARL8B / RFU, ZBTB11 / Fold change vs veh, ZBTB11 / RFU, TAMM41 / Fold change vs veh, TAMM41 / RFU, KIAA1704 /// LOC100996395 / Fold change vs veh, KIAA1704 /// LOC100996395 / RFU, ING1 / Fold change vs veh, ING1 / RFU, TRMT61B / Fold change vs veh, TRMT61B / RFU, FUBP3 / Fold change vs veh, FUBP3 / RFU, TP53 / Fold change vs veh, TP53 / RFU, TNKS2 / Fold change vs veh, TNKS2 / RFU, ZFP14 / Fold change vs veh, ZFP14 / RFU, ACTR2 / Fold change vs veh, ACTR2 / RFU, PPP3R1 / Fold change vs veh, PPP3R1 / RFU, PIK3R1 / Fold change vs veh, PIK3R1 / RFU, HNRNPA1 / Fold change vs veh, HNRNPA1 / RFU, RNF170 / Fold change vs veh, RNF170 / RFU, ZNF28 / Fold change vs veh, ZNF28 / RFU, RNGTT / Fold change vs veh, RNGTT / RFU, OGT / Fold change vs veh, OGT / RFU, BRD1 / Fold change vs veh, BRD1 / RFU, MARS / Fold change vs veh, MARS / RFU, ZNF655 / Fold change vs veh, ZNF655 / RFU, FAHD1 / Fold change vs veh, FAHD1 / RFU, BDP1 / Fold change vs veh, BDP1 / RFU, LRRCC1 / Fold change vs veh, LRRCC1 / RFU, ARID1A / Fold change vs veh, ARID1A / RFU, ZNF146 / Fold change vs veh, ZNF146 / RFU, ZNF330 / Fold change vs veh, ZNF330 / RFU, GPN3 / Fold change vs veh, GPN3 / RFU, C9orf123 / Fold change vs veh, C9orf123 / RFU, N4BP2L2 / Fold change vs veh, N4BP2L2 / RFU, ARFIP1 / Fold change vs veh, ARFIP1 / RFU, FAM179B / Fold change vs veh, FAM179B / RFU, BCL10 / Fold change vs veh, BCL10 / RFU, UHRF1BP1L / Fold change vs veh, UHRF1BP1L / RFU, BET1 / Fold change vs veh, BET1 / RFU, CNOT2 / Fold change vs veh, CNOT2 / RFU, ZNF268 / Fold change vs veh, ZNF268 / Fold change vs veh, ZNF507 / RFU, DGCR2 / Fold change vs veh, DGCR2 / RFU, WDSUB1 / Fold change vs veh, WDSUB1 / Fold change vs veh, HSP90B1 /// MIR3652 / RFU, ADSS / Fold change vs veh, ADSS / RFU, GK / Fold change vs veh, GK / RFU, ZNF148 / Fold change vs veh, ZNF148 / RFU, TAF9 / Fold change vs veh, TAF9 / RFU, SLC1A5 / Fold change vs veh, SLC1A5 / RFU, SLMO2 / Fold change vs veh, SLMO2 / RFU, ABCC4 / Fold change vs veh, ABCC4 / RFU, LOC101060439 /// RAP1B / Fold change vs veh, LOC101060439 /// RAP1B / RFU, RFX7 / Fold change vs veh, RFX7 / RFU, GTPBP10 / Fold change vs veh, GTPBP10 / RFU, CNEP1R1 / Fold change vs veh, CNEP1R1 / RFU, BIVM-ERCC5 /// ERCC5 / Fold change vs veh, BIVM-ERCC5 /// ERCC5 / RFU, ILF3 / Fold change vs veh, ILF3 / RFU 11762660_at / Fold change /veh 11762660_at / RFU VCAN (11757783_s_at) / Fold change /veh VCAN (11757783_s_at) / RFU DDX43 (11728927_at) / Fold change /veh DDX43 (11728927_at) / RFU KRT8 (11758188_x_at) / Fold change /veh KRT8 (11758188_x_at) / RFU NKD1 (11759106_at) / Fold change /veh NKD1 (11759106_at) / RFU SRD5A1 (11742802_a_at) / Fold change /veh SRD5A1 (11742802_a_at) / RFU TPSAB1 /// TPSB2 (11721975_s_at) / Fold change /veh TPSAB1 /// TPSB2 (11721975_s_at) / RFU GSTM3 (11746129_a_at) / Fold change /veh GSTM3 (11746129_a_at) / RFU IL23R (11737362_x_at) / Fold change /veh IL23R (11737362_x_at) / RFU TMEM51 (11727254_a_at) / Fold change /veh TMEM51 (11727254_a_at) / RFU PIWIL2 (11732686_x_at) / Fold change /veh PIWIL2 (11732686_x_at) / RFU ORM1 (11744905_x_at) / Fold change /veh ORM1 (11744905_x_at) / RFU CCDC152 (11743942_at) / Fold change /veh CCDC152 (11743942_at) / RFU ECM1 (11717891_a_at) / Fold change /veh ECM1 (11717891_a_at) / RFU IL23R (11748794_a_at) / Fold change /veh IL23R (11748794_a_at) / RFU TNFAIP8L3 (11732012_x_at) / Fold change /veh TNFAIP8L3 (11732012_x_at) / RFU MBOAT4 (11741988_at) / Fold change /veh MBOAT4 (11741988_at) / RFU 11764193_at / Fold change /veh 11764193_at / RFU TMEM53 (11763286_at) / Fold change /veh TMEM53 (11763286_at) / RFU MAGEB2 (11727129_at) / Fold change /veh MAGEB2 (11727129_at) / RFU TMEM200A (11744735_a_at) / Fold change /veh TMEM200A (11744735_a_at) / RFU CCDC152 (11751479_a_at) / Fold change /veh CCDC152 (11751479_a_at) / RFU FAM211A (11726209_a_at) / Fold change /veh FAM211A (11726209_a_at) / RFU RGS16 (11746705_a_at) / Fold change /veh RGS16 (11746705_a_at) / RFU VCAN (11755009_s_at) / Fold change /veh VCAN (11755009_s_at) / RFU RHOB (11743442_s_at) / Fold change /veh RHOB (11743442_s_at) / RFU RGS16 (11720943_a_at) / Fold change /veh RGS16 (11720943_a_at) / RFU RGS16 (11720944_at) / Fold change /veh RGS16 (11720944_at) / RFU, VPS4B / Fold change vs veh, VPS4B / RFU, CREB1 / Fold change vs veh, CREB1 / RFU, DNAJC13 / Fold change vs veh, DNAJC13 / RFU, GNAQ / Fold change vs veh, GNAQ / RFU, CDK5R1 / Fold change vs veh, CDK5R1 / RFU, ZRANB3 / Fold change vs veh, ZRANB3 / RFU, CUL4A / Fold change vs veh, CUL4A / RFU, CCNY / Fold change vs veh, CCNY / RFU, UFL1 / Fold change vs veh, UFL1 / RFU, COG3 / Fold change vs veh, COG3 / RFU, DIAPH2 / Fold change vs veh, DIAPH2 / RFU, SKA2 / Fold change vs veh, SKA2 / RFU, AFF3 / Fold change vs veh, AFF3 / RFU, LMF1 / Fold change vs veh, LMF1 / RFU, IPO11 / Fold change vs veh, IPO11 / RFU, DFFB / Fold change vs veh, DFFB / RFU, FOXP1 / Fold change vs veh, FOXP1 / RFU, CARD8 / Fold change vs veh, CARD8 / RFU, STRN3 / Fold change vs veh, STRN3 / RFU, ADK / Fold change vs veh, ADK / RFU, RASSF2 / Fold change vs veh, RASSF2 / RFU, WIPF1 / Fold change vs veh, WIPF1 / RFU, LARP1B / Fold change vs veh, LARP1B / RFU, RASA1 / Fold change vs veh, RASA1 / RFU, RB1 / Fold change vs veh, RB1 / RFU, PPFIA1 / Fold change vs veh, PPFIA1 / RFU, MAT2A / Fold change vs veh, MAT2A / RFU, CCT5 / Fold change vs veh, CCT5 / RFU, WDR92 / Fold change vs veh, WDR92 / RFU, CUX1 / Fold change vs veh, CUX1 / RFU, TTC7A / Fold change vs veh, TTC7A / RFU, TMEM135 / Fold change vs veh, TMEM135 / RFU, DEPTOR / Fold change vs veh, DEPTOR / RFU, CPM / Fold change vs veh, CPM / RFU, DNAJB6 / Fold change vs veh, DNAJB6 / RFU, CACNA2D3 / Fold change vs veh, CACNA2D3 / RFU, DTX4 / Fold change vs veh, DTX4 / RFU, TFCP2 / Fold change vs veh, TFCP2 / RFU, GMCL1 /// GMCL1P1 / Fold change vs veh, GMCL1 /// GMCL1P1 / RFU, AEBP2 / Fold change vs veh, AEBP2 / RFU, SNHG1 /// SNORD22 /// SNORD25 /// SNORD26 /// SNORD27 /// SNORD28 /// SNORD29 /// SNORD31 / Fold change vs veh, SNHG1 /// SNORD22 /// SNORD25 /// SNORD26 /// SNORD27 /// SNORD28 /// SNORD29 /// SNORD31 / Fold change (Aza/veh), C12orf56 (ProbeSet 11735607_a_at) / Fold change (ACY-1035/veh), C12orf56 (ProbeSet 11735607_a_at) / Fold change (Aza/veh), FGFR1OP (ProbeSet 11751329_s_at) / Fold change (ACY-1035/veh), FGFR1OP (ProbeSet 11751329_s_at) / Fold change (Aza/veh), VPS36 (ProbeSet 11739960_a_at) / Fold change (ACY-1035/veh), VPS36 (ProbeSet 11739960_a_at) / RFU SYPL1 (11715823_x_at) / Fold change /veh SYPL1 (11715823_x_at) / RFU IGFBP7 (11715501_s_at) / Fold change /veh IGFBP7 (11715501_s_at) / RFU REEP3 (11722064_at) / Fold change /veh REEP3 (11722064_at) / RFU IGLL1 (11728026_x_at) / Fold change /veh IGLL1 (11728026_x_at): dose or concentration left out as unconfirmed
Details: ProbeSet 11721969_s_at; LIST B

With Nc1ccc(-c2cccs2)cc1NC(=O)c1ccc2c(c1)cc(C1CC1)n2CCN1CCOCC1 [ACY-1035] the “Fold change vs veh, BDP1” value was 0.84.
